Laboratory results reported in patent US10912771B1, “Methods for the administration of certain VMAT2 inhibitors” (Neurocrine Biosciences, Inc., priority 2017, dated 2021).
Entries after “also recorded” stand apart in the source; their conditions may differ. Like-named read-outs stand apart in the source and are kept apart here.

Legend:
[1] = molecular target: T1, Serotonin 5-HT1A (Homo sapiens, UniProt P08908); assay: Cerep screen, Serotonin 5-HT1A; conditions: 1 or 10 μM final concentration; n=2
T1 sequence (P08908 1-422): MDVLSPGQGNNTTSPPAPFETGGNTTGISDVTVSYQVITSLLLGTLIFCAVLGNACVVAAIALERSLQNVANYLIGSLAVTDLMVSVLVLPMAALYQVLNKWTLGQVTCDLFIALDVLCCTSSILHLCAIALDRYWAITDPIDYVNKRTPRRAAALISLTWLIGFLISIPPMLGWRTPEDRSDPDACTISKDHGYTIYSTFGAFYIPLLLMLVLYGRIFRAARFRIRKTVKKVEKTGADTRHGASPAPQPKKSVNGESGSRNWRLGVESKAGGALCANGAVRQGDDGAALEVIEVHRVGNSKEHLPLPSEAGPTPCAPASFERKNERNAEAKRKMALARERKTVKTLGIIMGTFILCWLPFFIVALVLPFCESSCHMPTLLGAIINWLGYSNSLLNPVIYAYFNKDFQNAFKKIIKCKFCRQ

[2] = Ptosis, in vivo surrogate measure of pharmacological effect
[3] = Phase 1 open-label one-sequence crossover drug-interaction study: plasma pharmacokinetics of NBI-98854 and metabolites with and without rifampin; format: in vivo, human; conditions: for half-life: read-out: Mean t1/2 (converted)
Procedure: (§1) Subjects received a single dose of 80 mg valbenazine tosylate on Days 1 and 11 between 0800 and 1000 hours. In addition, subjects received 600 mg rifampin (300 mg×2 capsules) once daily on Days 5 (after collection of the 96-hour PK sample) through 14 between 0830 and 1030 hours. Subjects were required to fast overnight before receiving the study drugs (valbenazine tosylate and rifampin). Subjects were discharged from the study center on Day 15 (final study day or upon early termination) after all safety evaluations and study assessments had been completed.
Safety was assessed throughout the study.
NBI-98854 40 mg capsules were administered orally. The dose of NBI-98854 was based on ditosylate salt (dose expressed as free base). Subjects received a single dose of NBI-98854 80 mg (as two 40 mg capsules) twice during the study, on Days 1 and 11.
Rifampin 300 mg capsules were administered orally. Subjects received a single dose of rifampin 600 mg (as two 300 mg capsules) on Days 5 (after collection of the 96 hour NBI-98854 PK sample) through 14 between 0830 and 1030 hours.
The following plasma PK parameters were calculated only for NBI-98854: • Apparent systemic clearance after oral administration (CL/F) • Apparent volume of distribution during the terminal phase after oral administration (Vz/F)
The last significant figure was rounded up if the digit to the right of it was >5, and was rounded down if the digit to the right of it was […].
The last significant figure was rounded up if the digit to the right of it was ≥5, and was rounded down if the digit to the right of it was ≤4.
(§2) An analysis of variance (ANOVA) model was used to compare AUC0-∞ and Cmax for NBI-98854 administered with rifampin (“test”) versus AUC0-∞ and Cmax for NBI-98854 alone (“reference”). The PK parameters for metabolites of NBI-98854 and rifampin were also evaluated. Safety data were summarized using descriptive statistics.

[4] = molecular target: Serotonin 5-HT7 (Homo sapiens, UniProt P34969); assay: Cerep screen, Serotonin 5-HT7; conditions: 1 or 10 μM final concentration; n=2
Chain of Serotonin 5-HT7 (P34969 whole entry): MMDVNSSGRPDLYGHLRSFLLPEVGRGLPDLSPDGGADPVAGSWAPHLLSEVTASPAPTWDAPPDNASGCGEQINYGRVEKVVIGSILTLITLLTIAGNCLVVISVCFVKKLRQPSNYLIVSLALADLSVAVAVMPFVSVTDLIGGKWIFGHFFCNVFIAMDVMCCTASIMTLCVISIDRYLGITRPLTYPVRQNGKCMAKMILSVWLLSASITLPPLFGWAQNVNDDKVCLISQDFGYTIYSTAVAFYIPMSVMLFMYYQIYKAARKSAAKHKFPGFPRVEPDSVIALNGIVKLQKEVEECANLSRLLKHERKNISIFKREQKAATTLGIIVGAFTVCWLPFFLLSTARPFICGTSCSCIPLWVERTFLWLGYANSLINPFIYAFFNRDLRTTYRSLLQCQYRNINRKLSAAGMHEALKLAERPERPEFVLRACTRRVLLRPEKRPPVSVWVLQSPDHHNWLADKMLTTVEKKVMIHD

[5] = system: CYP enzymes; conditions: human
[6] = Phase 1 drug-interaction study: safety, treatment-emergent adverse events; format: in vivo, human
Procedure: as §1, §2

[7] = molecular target: T2, human VMAT1 transporter (Homo sapiens, UniProt P54219); assay: Uptake in cells expressing VMAT1; format: cell-based; conditions: TBZ, VBZ and metabolites at concentrations up to 10 μM
T2 construct: expressed in transfected cells
T2 sequence (P54219 1-525): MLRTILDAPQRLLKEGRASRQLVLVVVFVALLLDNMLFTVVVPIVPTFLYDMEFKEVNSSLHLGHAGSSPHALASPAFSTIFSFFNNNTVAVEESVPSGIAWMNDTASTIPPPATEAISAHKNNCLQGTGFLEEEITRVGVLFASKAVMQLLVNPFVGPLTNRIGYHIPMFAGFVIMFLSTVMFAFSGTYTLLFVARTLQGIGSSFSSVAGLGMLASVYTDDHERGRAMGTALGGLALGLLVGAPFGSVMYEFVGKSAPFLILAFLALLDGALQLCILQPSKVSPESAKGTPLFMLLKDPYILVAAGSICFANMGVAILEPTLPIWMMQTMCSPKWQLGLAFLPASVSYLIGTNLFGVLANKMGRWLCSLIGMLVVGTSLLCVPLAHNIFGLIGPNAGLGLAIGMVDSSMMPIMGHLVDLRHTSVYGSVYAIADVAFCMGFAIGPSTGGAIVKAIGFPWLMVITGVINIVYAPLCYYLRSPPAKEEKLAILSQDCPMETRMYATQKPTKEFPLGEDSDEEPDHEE

[8] = system: more than 80 targets (GPCRs, cell-surface monoamine transporters, ion channels including HERG); assay: Cerep multi-target activity screen; conditions: receptors, monoamine transporters, and ion channels
[9] = molecular target: T3, VMAT2 (Homo sapiens, UniProt Q05940); assay: Inhibition of [3H]-DHTBZ binding to human platelets
T3 construct: from tissue; host or cells: human platelets (homogenates)
T3 sequence (Q05940 whole entry): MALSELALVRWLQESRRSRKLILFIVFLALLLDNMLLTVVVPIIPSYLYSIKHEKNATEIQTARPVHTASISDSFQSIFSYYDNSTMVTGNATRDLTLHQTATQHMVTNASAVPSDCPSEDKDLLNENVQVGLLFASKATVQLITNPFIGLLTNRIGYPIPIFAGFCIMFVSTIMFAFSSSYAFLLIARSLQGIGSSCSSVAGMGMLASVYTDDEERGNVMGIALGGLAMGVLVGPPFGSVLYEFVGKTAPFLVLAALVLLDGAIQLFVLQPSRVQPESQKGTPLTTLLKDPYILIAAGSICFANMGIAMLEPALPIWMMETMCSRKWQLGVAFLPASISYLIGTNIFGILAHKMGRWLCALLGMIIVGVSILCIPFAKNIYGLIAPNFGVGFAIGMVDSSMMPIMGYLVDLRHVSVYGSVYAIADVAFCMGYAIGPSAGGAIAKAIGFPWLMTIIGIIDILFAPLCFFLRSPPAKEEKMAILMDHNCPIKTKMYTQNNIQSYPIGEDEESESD

[10] = molecular target: Dopamine D2(s) (Homo sapiens, UniProt P14416); assay: Cerep screen, Dopamine D2(s); conditions: radioligand binding assays and broad panel screen
Chain of Dopamine D2(s) (P14416 1-414 isoform P14416-2): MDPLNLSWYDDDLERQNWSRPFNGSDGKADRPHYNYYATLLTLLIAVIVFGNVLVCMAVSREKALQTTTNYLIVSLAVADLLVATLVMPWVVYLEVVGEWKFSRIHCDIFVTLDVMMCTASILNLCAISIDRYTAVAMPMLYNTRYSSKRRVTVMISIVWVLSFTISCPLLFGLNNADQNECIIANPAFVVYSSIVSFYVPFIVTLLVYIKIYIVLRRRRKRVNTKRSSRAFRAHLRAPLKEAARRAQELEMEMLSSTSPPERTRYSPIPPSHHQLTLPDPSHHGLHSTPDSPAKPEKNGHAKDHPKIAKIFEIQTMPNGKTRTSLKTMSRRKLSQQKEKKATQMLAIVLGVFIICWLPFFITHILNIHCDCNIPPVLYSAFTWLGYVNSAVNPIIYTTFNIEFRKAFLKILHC

[11] = molecular target: Dopamine D1 (Homo sapiens, UniProt P21728); assay: Cerep screen, Dopamine D1; conditions: radioligand binding assays and broad panel screen
Chain of Dopamine D1 (P21728 whole entry): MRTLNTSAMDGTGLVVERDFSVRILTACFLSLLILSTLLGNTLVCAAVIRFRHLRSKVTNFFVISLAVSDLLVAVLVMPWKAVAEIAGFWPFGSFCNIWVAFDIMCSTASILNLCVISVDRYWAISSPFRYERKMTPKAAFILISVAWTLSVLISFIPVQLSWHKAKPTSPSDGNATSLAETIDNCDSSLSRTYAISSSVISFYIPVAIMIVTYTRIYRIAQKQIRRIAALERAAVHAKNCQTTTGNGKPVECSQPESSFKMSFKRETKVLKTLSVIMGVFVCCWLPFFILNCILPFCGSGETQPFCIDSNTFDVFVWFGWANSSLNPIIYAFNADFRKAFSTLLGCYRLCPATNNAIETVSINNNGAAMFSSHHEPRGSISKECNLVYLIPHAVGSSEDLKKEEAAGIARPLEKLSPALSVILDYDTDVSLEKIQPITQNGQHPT

[12] = Prolactin release, in vivo surrogate for dopaminergic modulation
[13] = both sexes, human, oral, 80 mg, plasma analyte, NBI-98854 alone
[14] = both sexes, human, oral, plasma NBI-98854, NBI-98854 80 mg + rifampin 600 mg, N = 11, Mean (SD)
[15] = both sexes, human, oral, plasma NBI-98854, NBI-98854 80 mg alone, N = 11, Mean (SD)
[16] = both sexes, human, oral, plasma analyte, NBI-98854 administered with rifampin
[17] = plasma analyte, NBI-98854 plus rifampin compared with NBI-98854 alone
[18] = Safety Analysis Set, healthy subjects, by treatment period
[19] = both sexes, human, plasma, oral, 80 mg
[20] = plasma metabolite NBI-98782, NBI-98854 80 mg + rifampin 600 mg, N = 11, Mean (SD)
[21] = plasma metabolite NBI-98782, NBI-98854 80 mg alone, N = 11, Mean (SD)

## COc1cc2c(cc1OC)[C@H]1C[C@@H](OC(=O)[C@@H](N)C(C)C)[C@H](CC(C)C)CN1CC2 [NBI-98854, (S)-2-amino-3-methyl-butyric acid (2R, 3R,11bR)-3-isobutyl-9,10-dimethoxy-1,3,4,6,7,11b-hexahydro-2H-pyrido[2,1-a]isoquinolin-2-yl ester]
[1]
  percent of control specific binding, Serotonin 5-HT1A: 26%
[2]
  induction of ptosis: induced ptosis in an equivalent manner
[3]; NBI-98854 80 mg + rifampin 600 mg, N = 11, Mean (SD)
  CL/F: 50.3 (11.4) L/hr
[3]; NBI-98854 80 mg alone, N = 11, Mean (SD)
  CL/F: 13.8 (2.77) L/hr
[3]; [13]
  half-life: 16 h
[3]; [14]
  AUC(0-inf): 1700 ng·h/mL
  Cmax: 542 ng/mL
  MRT: 8.7 h
[3]; both sexes, human, oral, plasma NBI-98854, NBI-98854 80 mg + rifampin 600 mg, N = 11, Median (mm, max), read-out: tmax
  Tmax: 0.75 h
[3]; [15]
  AUC(0-inf): 6020 ng·h/mL
  Cmax: 795 ng/mL
  MRT: 17 h
[3]; both sexes, human, oral, plasma NBI-98854, NBI-98854 80 mg alone, N = 11, Median (mm, max), read-out: tmax
  Tmax: 0.75 h
[3]; [16]
  half-life: 10 h
[3]; both sexes, human, plasma, oral, 80 mg, plasma NBI-98854, NBI-98854 80 mg alone, N = 11, Mean (SD), read-out: AUC0-24
  AUC(0-t): 4480 ng·h/mL
[3]; both sexes, human, plasma, oral, 80 mg, plasma NBI-98854, NBI-98854 80 mg alone, N = 11, Mean (SD), read-out: AUC0-tlast
  AUC(0-t): 5930 ng·h/mL
[3]; both sexes, human, plasma, oral, plasma NBI-98854, NBI-98854 80 mg + rifampin 600 mg, N = 11, Mean (SD), read-out: AUC0-24
  AUC(0-t): 1510 ng·h/mL
[3]; both sexes, human, plasma, oral, plasma NBI-98854, NBI-98854 80 mg + rifampin 600 mg, N = 11, Mean (SD), read-out: AUC0-tlast
  AUC(0-t): 1670 ng·h/mL
[3]; plasma NBI-98854, NBI-98854 80 mg + rifampin 600 mg, N = 11, Mean (SD)
  t1/2: 10 (2.1) hours
[3]; plasma NBI-98854, NBI-98854 80 mg alone, N = 11, Mean (SD)
  t1/2: 16 (2.3) hours
[3]; [17]
  decrease in AUC0-∞: ~70%
  decrease in Cmax: ~30%
[4]
  percent of control specific binding, Serotonin 5-HT7: 4%
[5]
  enzymes involved in oxidative metabolism: CYP3A4/5 is the major enzyme
[6]; 80 mg in healthy subjects, alone or concomitantly with rifampin
  Tolerability: well tolerated
[6]; [18]
  Subjects who experienced a TEAE: Overall: 6 (50.0) n (%)
  TEAE: Abdominal pain: 1 (8.3) n (%)
  TEAE: Abdominal pain upper: 0 n (%)
  TEAE: Arthropod bite: 1 (8.3) n (%)
  TEAE: Chromaturia: 0 n (%)
  TEAE: Headache: 3 (25.0) n (%)
  TEAE: Hypoaesthesia: 0 n (%)
  TEAE: Non-cardiac chest pain: 0 n (%)
  TEAE: Paraesthesia: 0 n (%)
  TEAE: Vessel puncture site haemorrhage: 1 (8.3) n (%)
[7]; listed as VBZ
  inhibition of uptake through VMAT1: no significant inhibitory activity; also recorded: no significant effect
[8]
  affinity for more than 80 binding sites: little to no affinity
[9]
  Affinity Relative to R,R,R-DHTBZ: 45
[9]; n=4
  pKi mean (SEM): 6.82 (0.02)

## COc1cc2c(cc1OC)[C@@H]1C[C@H](O)[C@@H](CC(C)C)CN1CC2 [S,S,S-DHTBZ]
[10]
  interaction with D2 receptors: interact with D1 and D2 receptors
[11]
  interaction with D1 receptors: interact with D1 and D2 receptors

## COc1cc2c(cc1OC)[C@@H]1C[C@@H](O)[C@@H](CC(C)C)CN1CC2 [R,S,S-DHTBZ]
[10]
  interaction with D2 receptors: interact with D1 and D2 receptors
[11]
  interaction with D1 receptors: interact with D1 and D2 receptors

## COc1cc2c(cc1OC)[C@H]1C[C@@H](O)[C@H](CC(C)C)CN1CC2 [NBI-98782, (2R, 3R,11bR)-3-isobutyl-9,10-dimethoxy-1,3,4,6,7,11b-hexahydro-2H-pyrido[2,1-a]isoquinolin-2-ol]
[1]
  percent of control specific binding, Serotonin 5-HT1A: 17%
[2]
  induction of ptosis: induced ptosis in an equivalent manner
[3]; [13]
  half-life: 19 h
[3]; both sexes, human, oral, 80 mg, plasma analyte, NBI-98854 alone, read-out: Median tmax
  Tmax: 4 h
[3]; [16]
  half-life: 12 h
[3]; both sexes, human, oral, plasma analyte, NBI-98854 plus rifampin, read-out: Median tmax
  Tmax: 3 h
[3]; [19]
  AUC(0-inf): 689 ng·h/mL
  Cmax: 21.5 ng/mL
  MRT: 28 h
[3]; both sexes, human, plasma, oral, 80 mg, plasma metabolite NBI-98782, NBI-98854 80 mg alone, N = 11, Mean (SD), read-out: AUC0-24
  AUC(0-t): 364 ng·h/mL
[3]; both sexes, human, plasma, oral, 80 mg, plasma metabolite NBI-98782, NBI-98854 80 mg alone, N = 11, Mean (SD), read-out: AUC0-tlast
  AUC(0-t): 665 ng·h/mL
[3]; both sexes, human, plasma, oral, plasma metabolite NBI-98782, NBI-98854 80 mg + rifampin 600 mg, N = 11, Mean (SD), read-out: AUC0-24
  AUC(0-t): 115 ng·h/mL
[3]; both sexes, human, plasma, oral, plasma metabolite NBI-98782, NBI-98854 80 mg + rifampin 600 mg, N = 11, Mean (SD), read-out: AUC0-tlast
  AUC(0-t): 153 ng·h/mL
[3]; [20]
  Tlag: 0.23 (0.075) hr
  t1/2: 12 (1.7) hr
[3]; plasma metabolite NBI-98782, NBI-98854 80 mg + rifampin 600 mg, N = 11, Median (min, max)
  Tmax: 3.0 (0.50, 4.0) hr
[3]; [21]
  Tlag: 0.25 (0.16) hr
  t1/2: 19 (2.3) hr
[3]; plasma metabolite NBI-98782, NBI-98854 80 mg alone, N = 11, Median (min, max)
  Tmax: 4.0 (0.52, 18) hr
[4]
  percent of control specific binding, Serotonin 5-HT7: 3%
[5]
  enzymes involved in oxidative metabolism: mediated primarily by CYP2D6 with contribution from CYP3A4/5
[7]; listed as R,R,R-DHTBZ
  inhibition of uptake through VMAT1: no significant inhibitory activity; also recorded: no significant effect
[12]
  increase in serum prolactin levels: induced a similar increase in serum prolactin levels as TBZ
[8]
  affinity for more than 80 binding sites: little to no affinity
